Measured values published in the supplement of paper PMC10307832.

Columns and labels:
Test in all cases: relative viability (nuclei count vs DMSO), 5 days (fraction); higher = more cells survive
[1] = system: NCI-H1944
How it was run: (§1)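 Lung cancer cell lines in 1536-well plates were dosed by pin tool the day after seeding, either with one drug alone or with a fixed anchor-drug dose plus five library-drug doses (not always all listed) in √10 steps. After 5 days, cells were fixed and their nuclei stained in one step (final 0.05% Triton X-100, 1% formaldehyde, 1 ug/ml Hoechst), then counted on 4× images. Relative viability is the nuclei count in treated wells divided by that in vehicle wells. Values are medians of duplicate plates.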

[2] = system: NCI-H1975
How it was run: as §1

[3] = system: NCI-H1734
How it was run: as §1

[4] = system: NCI-H2170
How it was run: as §1

[5] = system: PC-3 [JPC-3]
How it was run: as §1

[6] = system: A-427
How it was run: as §1

[7] = system: EKVX
How it was run: as §1

[8] = system: LOU-NH91
How it was run: as §1

[9] = system: NCI-H441
How it was run: as §1

[10] = system: SW 900
How it was run: as §1

[11] = system: NCI-H520
How it was run: as §1

[12] = system: HCC-366
How it was run: as §1

[13] = system: NCI-H1666
How it was run: as §1

[14] = system: ChaGo-K-1
How it was run: as §1

[15] = system: COR-L 105
How it was run: as §1

[16] = system: NCI-H1755
How it was run: as §1

[17] = system: LK-2
How it was run: as §1

[18] = system: SK-MES-1
How it was run: as §1

[19] = system: NCI-H23
How it was run: as §1

[20] = system: NCI-H596
How it was run: as §1

[21] = system: H3255
How it was run: as §1

[22] = system: EMC-BAC-2
How it was run: as §1

CC(C)Oc1cc(Nc2nc(N[C@@H](C)c3ccc(F)cn3)ncc2Cl)n[nH]1 [AZ23] + O=C(CCCCCCC(=O)Nc1ccccc1)NO [Vorinostat] (partner 1 µM)
relative viability ([1]; first compound 0.01 µM): 0.409 | relative viability ([1]; first compound 0.03162 µM): 0.625 | relative viability ([1]; first compound 0.3162 µM): 0.631 | relative viability ([2]; first compound 0.01 µM): 0.734 | relative viability ([2]; first compound 0.03162 µM): 0.738 | relative viability ([2]; first compound 0.3162 µM): 0.731 | relative viability ([3]; first compound 0.01 µM): 0.64 | relative viability ([3]; first compound 0.03162 µM): 0.88 | relative viability ([3]; first compound 0.3162 µM): 1.06 | relative viability ([4]; first compound 0.01 µM): 0.958 | relative viability ([4]; first compound 0.03162 µM): 0.937 | relative viability ([4]; first compound 0.3162 µM): 0.906 | relative viability ([5]; first compound 0.01 µM): 0.721 | relative viability ([5]; first compound 0.03162 µM): 0.867 | relative viability ([5]; first compound 0.3162 µM): 0.826 | relative viability ([6]; first compound 0.01 µM): 0.699 | relative viability ([6]; first compound 0.03162 µM): 0.892 | relative viability ([6]; first compound 0.3162 µM): 0.988 | relative viability ([7]; first compound 0.01 µM): 0.811 | relative viability ([7]; first compound 0.03162 µM): 0.683 | relative viability ([7]; first compound 0.3162 µM): 0.675 | relative viability ([8]; first compound 0.01 µM): 0.864 | relative viability ([8]; first compound 0.03162 µM): 1.03 | relative viability ([8]; first compound 0.3162 µM): 0.964 | relative viability ([9]; first compound 0.01 µM): 0.825 | relative viability ([9]; first compound 0.03162 µM): 0.842 | relative viability ([9]; first compound 0.3162 µM): 0.738 | relative viability ([10]; first compound 0.01 µM): 0.367 | relative viability ([10]; first compound 0.3162 µM): 0.544 | relative viability ([11]; first compound 0.01 µM): 0.794 | relative viability ([11]; first compound 0.03162 µM): 0.754 | relative viability ([11]; first compound 0.3162 µM): 0.609 | relative viability ([12]; first compound 0.01 µM): 0.299 | relative viability ([12]; first compound 0.03162 µM): 0.428 | relative viability ([12]; first compound 0.3162 µM): 0.441 | relative viability ([13]; first compound 0.01 µM): 0.859 | relative viability ([13]; first compound 0.03162 µM): 0.977 | relative viability ([13]; first compound 0.3162 µM): 1.03 | relative viability ([14]; first compound 0.01 µM): 0.936 | relative viability ([14]; first compound 0.03162 µM): 0.798 | relative viability ([14]; first compound 0.3162 µM): 0.82 | relative viability ([15]; first compound 0.01 µM): 0.698 | relative viability ([15]; first compound 0.03162 µM): 0.799 | relative viability ([15]; first compound 0.3162 µM): 0.841 | relative viability ([16]; first compound 0.01 µM): 0.854 | relative viability ([16]; first compound 0.03162 µM): 0.714 | relative viability ([16]; first compound 0.3162 µM): 0.805 | relative viability ([17]; first compound 0.01 µM): 0.22 | relative viability ([17]; first compound 0.03162 µM): 0.216 | relative viability ([17]; first compound 0.3162 µM): 0.3 | relative viability ([18]; first compound 0.03162 µM): 1.22 | relative viability ([18]; first compound 0.3162 µM): 1.2 | relative viability ([19]; first compound 0.03162 µM): 0.62 | relative viability ([19]; first compound 0.3162 µM): 0.719 | relative viability ([20]; first compound 0.01 µM): 0.523 | relative viability ([20]; first compound 0.03162 µM): 0.622 | relative viability ([20]; first compound 0.3162 µM): 0.582 | relative viability ([21]; first compound 0.01 µM): 0.737 | relative viability ([21]; first compound 0.03162 µM): 0.791 | relative viability ([21]; first compound 0.3162 µM): 0.867 | relative viability ([22]; first compound 0.01 µM): 0.333 | relative viability ([22]; first compound 0.03162 µM): 0.511 | relative viability ([22]; first compound 0.3162 µM): 0.505

C[C@@H]1CN(CC(=O)Nc2ccc3c(c2)Cc2cccc(-c4cc(=O)cc(N5CCOCC5)o4)c2S3)C[C@H](C)O1 + O=C(CCCCCCC(=O)Nc1ccccc1)NO [Vorinostat] (partner 1 µM)
relative viability ([1]; first compound 0.1265 µM): 0.716 | relative viability ([1]; first compound 0.4 µM): 0.594 | relative viability ([1]; first compound 4 µM): 0.637 | relative viability ([2]; first compound 0.04 µM): 0.68 | relative viability ([2]; first compound 0.1265 µM): 0.717 | relative viability ([2]; first compound 0.4 µM): 0.61 | relative viability ([2]; first compound 4 µM): 0.536 | relative viability ([3]; first compound 0.04 µM): 0.602 | relative viability ([3]; first compound 0.1265 µM): 0.768 | relative viability ([3]; first compound 0.4 µM): 0.812 | relative viability ([3]; first compound 4 µM): 0.901 | relative viability ([4]; first compound 0.04 µM): 0.857 | relative viability ([4]; first compound 0.1265 µM): 0.811 | relative viability ([4]; first compound 0.4 µM): 0.798 | relative viability ([4]; first compound 4 µM): 0.742 | relative viability ([5]; first compound 0.04 µM): 0.822 | relative viability ([5]; first compound 0.1265 µM): 0.792 | relative viability ([5]; first compound 0.4 µM): 0.821 | relative viability ([5]; first compound 4 µM): 0.821 | relative viability ([6]; first compound 0.04 µM): 0.853 | relative viability ([6]; first compound 0.1265 µM): 0.92 | relative viability ([6]; first compound 0.4 µM): 0.908 | relative viability ([6]; first compound 4 µM): 0.779 | relative viability ([7]; first compound 0.04 µM): 0.753 | relative viability ([7]; first compound 0.1265 µM): 0.666 | relative viability ([7]; first compound 0.4 µM): 0.696 | relative viability ([7]; first compound 4 µM): 0.661 | relative viability ([8]; first compound 0.04 µM): 0.611 | relative viability ([8]; first compound 0.1265 µM): 0.945 | relative viability ([8]; first compound 0.4 µM): 0.847 | relative viability ([8]; first compound 4 µM): 0.785 | relative viability ([9]; first compound 0.04 µM): 0.718 | relative viability ([9]; first compound 0.1265 µM): 0.777 | relative viability ([9]; first compound 0.4 µM): 0.849 | relative viability ([9]; first compound 4 µM): 0.625 | relative viability ([10]; first compound 0.04 µM): 0.421 | relative viability ([10]; first compound 0.1265 µM): 0.607 | relative viability ([10]; first compound 0.4 µM): 0.534 | relative viability ([10]; first compound 4 µM): 0.381 | relative viability ([11]; first compound 0.04 µM): 0.776 | relative viability ([11]; first compound 0.1265 µM): 0.677 | relative viability ([11]; first compound 0.4 µM): 0.656 | relative viability ([11]; first compound 4 µM): 0.562 | relative viability ([12]; first compound 0.04 µM): 0.314 | relative viability ([12]; first compound 0.1265 µM): 0.366 | relative viability ([12]; first compound 0.4 µM): 0.346 | relative viability ([12]; first compound 4 µM): 0.264 | relative viability ([13]; first compound 0.04 µM): 1.01 | relative viability ([13]; first compound 0.1265 µM): 1.17 | relative viability ([13]; first compound 0.4 µM): 1.09 | relative viability ([13]; first compound 4 µM): 0.885 | relative viability ([14]; first compound 0.04 µM): 0.496 | relative viability ([14]; first compound 0.1265 µM): 0.778 | relative viability ([14]; first compound 0.4 µM): 0.803 | relative viability ([14]; first compound 4 µM): 0.72 | relative viability ([15]; first compound 0.04 µM): 0.799 | relative viability ([15]; first compound 0.1265 µM): 0.783 | relative viability ([15]; first compound 0.4 µM): 0.926 | relative viability ([15]; first compound 4 µM): 0.875 | relative viability ([16]; first compound 0.04 µM): 0.759 | relative viability ([16]; first compound 0.1265 µM): 0.854 | relative viability ([16]; first compound 0.4 µM): 0.729 | relative viability ([16]; first compound 4 µM): 0.87 | relative viability ([17]; first compound 0.04 µM): 0.314 | relative viability ([17]; first compound 0.1265 µM): 0.309 | relative viability ([17]; first compound 0.4 µM): 0.254 | relative viability ([17]; first compound 4 µM): 0.298 | relative viability ([18]; first compound 0.04 µM): 1.19 | relative viability ([18]; first compound 0.1265 µM): 1.07 | relative viability ([18]; first compound 0.4 µM): 1.01 | relative viability ([18]; first compound 4 µM): 0.855 | relative viability ([19]; first compound 0.04 µM): 0.634 | relative viability ([19]; first compound 0.1265 µM): 0.508 | relative viability ([19]; first compound 0.4 µM): 0.537 | relative viability ([19]; first compound 4 µM): 0.589 | relative viability ([20]; first compound 0.04 µM): 0.627 | relative viability ([20]; first compound 0.1265 µM): 0.707 | relative viability ([20]; first compound 0.4 µM): 0.642 | relative viability ([20]; first compound 4 µM): 0.567 | relative viability ([21]; first compound 0.04 µM): 0.634 | relative viability ([21]; first compound 0.1265 µM): 0.757 | relative viability ([21]; first compound 0.4 µM): 0.985 | relative viability ([21]; first compound 4 µM): 0.67 | relative viability ([22]; first compound 0.04 µM): 0.397 | relative viability ([22]; first compound 0.1265 µM): 0.468 | relative viability ([22]; first compound 0.4 µM): 0.469 | relative viability ([22]; first compound 4 µM): 0.54
